Measured values reported in ChEMBL document CHEMBL3390836, “Mannich- and LedererManasse-based analogues of the natural product S-(+)-curcuphenol as cancer proliferation and migration inhibitors” (Medchemcomm, 2012).

Legend:
Assay type in all cases: functional
NCI-H23 = test: Cytotoxicity against human NCI-H23 cells assessed as cell growth at 10^-4 M after 48 hrs by SRB assay relative to control; conditions: NCI-H23, 48 h, read-out: Activity
NCI-H460 [1] = test: Cytotoxicity against human NCI-H460 cells assessed as cell growth at 10^-4 M after 48 hrs by SRB assay relative to control; conditions: NCI-H460, 48 h, read-out: Activity
KM12 = test: Cytotoxicity against human KM12 cells assessed as cell growth at 10^-4 M after 48 hrs by SRB assay relative to control; conditions: KM12, 48 h, read-out: Activity
SF-268 [2] = test: Cytotoxicity against human SF268 cells assessed as cell growth at 10^-4 M after 48 hrs by SRB assay relative to control; conditions: SF-268, 48 h, read-out: Activity
SNB-75 = test: Cytotoxicity against human SNB75 cells after 48 hrs by SRB assay; conditions: SNB-75, 48 h
U-251 = test: Cytotoxicity against human U251 cells after 48 hrs by SRB assay; conditions: U-251, 48 h
SK-MEL-28 = test: Cytotoxicity against human SK-MEL-28 cells after 48 hrs by SRB assay; conditions: SK-MEL-28, 48 h
[3] = Cytotoxicity against human NCI-ADR-RES cells after 48 hrs by SRB assay
A498 [4] = test: Cytotoxicity against human A498 cells after 48 hrs by SRB assay; conditions: A498, 48 h
RXF 393 [5] = test: Cytotoxicity against human RXF393 cells after 48 hrs by SRB assay; conditions: RXF 393, 48 h
SNB-19 = test: Cytotoxicity against human SNB19 cells assessed as cell growth at 10^-4 M after 48 hrs by SRB assay relative to control; conditions: SNB-19, 48 h, read-out: Activity
SF-539 = test: Cytotoxicity against human SF539 cells assessed as cell growth at 10^-8 M after 48 hrs by SRB assay relative to control; conditions: SF-539, 48 h, read-out: Activity
786-0 = test: Cytotoxicity against human 786-0 cells assessed as cell growth at 10^-4 M after 48 hrs by SRB assay relative to control; conditions: 786-0, 48 h, read-out: Activity
RXF 393 [6] = test: Cytotoxicity against human RXF393 cells assessed as cell growth at 10^-4 M after 48 hrs by SRB assay relative to control; conditions: RXF 393, 48 h, read-out: Activity
[7] = Cytotoxicity against human PC3 cells assessed as cell growth at 10^-4 M after 48 hrs by SRB assay relative to control; conditions: PC-3, 48 h, read-out: Activity
[8] = Cytotoxicity against human UACC62 cells assessed as cell growth at 10^-8 M after 48 hrs by SRB assay relative to control; conditions: UACC-62, 48 h, read-out: Activity
[9] = Cytotoxicity against human OVCAR5 cells assessed as cell growth at 10^-8 M after 48 hrs by SRB assay relative to control; conditions: OVCAR-5, 48 h, read-out: Activity
A498 [10] = test: Cytotoxicity against human A498 cells assessed as cell growth at 10^-8 M after 48 hrs by SRB assay relative to control; conditions: A498, 48 h, read-out: Activity
MDA-MB-231 [11] = test: Cytotoxicity against human MDA-MB-231 cells assessed as cell growth at 10^-8 M after 48 hrs by SRB assay relative to control; conditions: MDA-MB-231, 48 h, read-out: Activity
K562 = test: Cytotoxicity against human K562 cells assessed as cell growth at 10^-7 M after 48 hrs by SRB assay relative to control; conditions: K562, 48 h, read-out: Activity
HOP-62 = test: Cytotoxicity against human HOP62 cells assessed as cell growth at 10^-7 M after 48 hrs by SRB assay relative to control; conditions: HOP-62, 48 h, read-out: Activity
NCI-H460 [12] = test: Cytotoxicity against human NCI-H460 cells assessed as cell growth at 10^-7 M after 48 hrs by SRB assay relative to control; conditions: NCI-H460, 48 h, read-out: Activity
MOLT-4 [13] = test: Cytotoxicity against human MOLT4 cells after 48 hrs by SRB assay; conditions: MOLT-4, 48 h
NCI-H226 = test: Cytotoxicity against human NCI-H226 cells after 48 hrs by SRB assay; conditions: NCI-H226, 48 h
NCI-H460 [14] = test: Cytotoxicity against human NCI-H460 cells after 48 hrs by SRB assay; conditions: NCI-H460, 48 h
[15] = Cytotoxicity against human OVCAR5 cells assessed as cell growth at 10^-7 M after 48 hrs by SRB assay relative to control; conditions: OVCAR-5, 48 h, read-out: Activity
[16] = Cytotoxicity against human NCI-ADR-RES cells assessed as cell growth at 10^-7 M after 48 hrs by SRB assay relative to control; conditions: read-out: Activity
CAKI-1 = test: Cytotoxicity against human Caki1 cells assessed as cell growth at 10^-7 M after 48 hrs by SRB assay relative to control; conditions: CAKI-1, 48 h, read-out: Activity
MOLT-4 [17] = test: Cytotoxicity against human MOLT4 cells assessed as cell growth at 10^-6 M after 48 hrs by SRB assay relative to control; conditions: MOLT-4, 48 h, read-out: Activity
HT-29 = test: Cytotoxicity against human HT-29 cells assessed as cell growth at 10^-6 M after 48 hrs by SRB assay relative to control; conditions: HT-29, 48 h, read-out: Activity
SF-268 [18] = test: Cytotoxicity against human SF268 cells assessed as cell growth at 10^-6 M after 48 hrs by SRB assay relative to control; conditions: SF-268, 48 h, read-out: Activity
Malme-3M = test: Cytotoxicity against human MALME-3M cells assessed as cell growth at 10^-6 M after 48 hrs by SRB assay relative to control; conditions: read-out: Activity
MDA-MB-435 = test: Cytotoxicity against human MDA-MB-435 cells assessed as cell growth at 10^-6 M after 48 hrs by SRB assay relative to control; conditions: MDA-MB-435, 48 h, read-out: Activity
[19] = Cytotoxicity against human OVCAR5 cells assessed as cell growth at 10^-6 M after 48 hrs by SRB assay relative to control; conditions: OVCAR-5, 48 h, read-out: Activity
MDA-MB-231 [20] = test: Cytotoxicity against human MDA-MB-231 cells assessed as cell growth at 10^-6 M after 48 hrs by SRB assay relative to control; conditions: MDA-MB-231, 48 h, read-out: Activity
[21] = Cytotoxicity against human Hs 578T cells assessed as cell growth at 10^-6 M after 48 hrs by SRB assay relative to control; conditions: read-out: Activity
[22] = read-out: LC50 (the source's name)

CC(C)=CCC[C@H](C)c1ccc(C)c2c1OCN(CC1CCNCC1)C2 gave a growth at 100 µM (NCI-H23) of -71%, a growth at 100 µM (NCI-H460 [1]) of -94% and a growth at 100 µM (KM12) of -90%. For the same molecule, the growth at 100 µM (SF-268 [2]) was -79%, the GI50 (SNB-75) was 11.9 µM and the LC50 (SNB-75) was 49.6 µM. The TGI (SNB-75) was 24.3 µM, the GI50 (U-251) was 2.75 µM and the LC50 (U-251) was 31.6 µM. It also gave a TGI (U-251) of 7.61 µM, a GI50 (SK-MEL-28) of 15.7 µM and a TGI (SK-MEL-28) of 28.3 µM. The CC50 (SK-MEL-28; [22]) was 54.8 µM, the GI50 [3] was 16.8 µM and the LC50 (lethal concentration, 50% cell kill) [3] was 71.8 µM. It also gave a TGI [3] of 34.8 µM, a GI50 (A498 [4]) of 12.3 µM and a TGI (A498 [4]) of 26 µM. It also gave a CC50 (A498 [4]; [22]) of 55 µM, a GI50 (RXF 393 [5]) of 9.2 µM and an LC50 (concentration killing 50% of cells) (RXF 393 [5]) of 88.3 µM. For the same molecule, the TGI (RXF 393 [5]) was 21.7 µM, the growth at 100 µM (SNB-19) was -82% and the growth at 0.01 µM (SF-539) was 91%. The growth at 100 µM (786-0) was -87%, the growth at 100 µM (RXF 393 [6]) was -93% and the growth at 100 µM [7] was -46%. It also gave a growth at 0.01 µM [8] of 95%, a growth at 0.01 µM [9] of 88% and a growth at 0.01 µM (A498 [10]) of 78%. The growth at 0.01 µM (MDA-MB-231 [11]) was 101%, the growth at 0.1 µM (K562) was 99% and the growth at 0.1 µM (HOP-62) was 94%. The growth at 0.1 µM (NCI-H460 [12]) was 106%, the GI50 (MOLT-4 [13]) was 14.6 µM and the LC50 (MOLT-4 [13]) was greater than 100 µM. It also gave a TGI (MOLT-4 [13]) of 43.3 µM, a GI50 (NCI-H226) of 17.7 µM and an LC50 (NCI-H226) of 64.5 µM. The TGI (NCI-H226) was 33.8 µM, the GI50 (NCI-H460 [14]) was 5.36 µM and the TGI (NCI-H460 [14]) was 16.6 µM. It also gave a CC50 (NCI-H460 [14]; [22]) of 43.1 µM, a growth at 0.1 µM [15] of 87% and a growth at 0.1 µM [16] of 98%. The growth at 0.1 µM (CAKI-1) was 108%, the growth at 1 µM (MOLT-4 [17]) was 100% and the growth at 1 µM (HT-29) was 103%. It also gave a growth at 1 µM (SF-268 [18]) of 102%, a growth at 1 µM (Malme-3M) of 95% and a growth at 1 µM (MDA-MB-435) of 96%. For the same molecule, the growth at 1 µM [19] was 85%, the growth at 1 µM (MDA-MB-231 [20]) was 99% and the growth at 1 µM [21] was 104%.
